Data on 18 compounds can be found in ChEMBL document CHEMBL1144438, “Dipeptidyl peptidase IV inhibitors derived from beta-aminoacylpiperidines bearing a fused thiazole, oxazole, isoxazole, or pyrazole” (Bioorg Med Chem Lett, 2005).

The target in one data set is Dipeptidyl peptidase 9 (Homo sapiens, UniProt Q86TI2). In words: Inhibitory concentration against human dipeptidylpeptidase 9.
Another data set addresses Dipeptidyl peptidase 8 (Homo sapiens, UniProt Q6V1X1). In words: Inhibitory concentration against human dipeptidylpeptidase 8.
The nature of data set [1]: Half-life of compound in rats dosed at 1 mg/kg i.v. The data set is classed as ADME, organism-based. More on the design: dose 1 mg/kg, route intravenous. Particulars: rat, in vivo, iv.
Data set [2] in a line: Oral bioavailability of compound in rats dosed at 2 mg/kg p.o. Type of data set: ADME, organism-based. The conditions noted are these: rat, in vivo.
Data set [3] can be described thus: Plasma clearance of compound in rats dosed at 1 mg/kg i.v. The data set is classed as ADME, organism-based. Further details: dose 1 mg/kg, route intravenous. Particulars: rat, iv.
For another data set, the target named is Dipeptidyl peptidase 2 (Homo sapiens, UniProt Q9UHL4). As to the kind of experiment: Inhibitory concentration against human dipeptidylpeptidase VII (QPP).

Sequence of Dipeptidyl peptidase 9 (Q86TI2 whole entry): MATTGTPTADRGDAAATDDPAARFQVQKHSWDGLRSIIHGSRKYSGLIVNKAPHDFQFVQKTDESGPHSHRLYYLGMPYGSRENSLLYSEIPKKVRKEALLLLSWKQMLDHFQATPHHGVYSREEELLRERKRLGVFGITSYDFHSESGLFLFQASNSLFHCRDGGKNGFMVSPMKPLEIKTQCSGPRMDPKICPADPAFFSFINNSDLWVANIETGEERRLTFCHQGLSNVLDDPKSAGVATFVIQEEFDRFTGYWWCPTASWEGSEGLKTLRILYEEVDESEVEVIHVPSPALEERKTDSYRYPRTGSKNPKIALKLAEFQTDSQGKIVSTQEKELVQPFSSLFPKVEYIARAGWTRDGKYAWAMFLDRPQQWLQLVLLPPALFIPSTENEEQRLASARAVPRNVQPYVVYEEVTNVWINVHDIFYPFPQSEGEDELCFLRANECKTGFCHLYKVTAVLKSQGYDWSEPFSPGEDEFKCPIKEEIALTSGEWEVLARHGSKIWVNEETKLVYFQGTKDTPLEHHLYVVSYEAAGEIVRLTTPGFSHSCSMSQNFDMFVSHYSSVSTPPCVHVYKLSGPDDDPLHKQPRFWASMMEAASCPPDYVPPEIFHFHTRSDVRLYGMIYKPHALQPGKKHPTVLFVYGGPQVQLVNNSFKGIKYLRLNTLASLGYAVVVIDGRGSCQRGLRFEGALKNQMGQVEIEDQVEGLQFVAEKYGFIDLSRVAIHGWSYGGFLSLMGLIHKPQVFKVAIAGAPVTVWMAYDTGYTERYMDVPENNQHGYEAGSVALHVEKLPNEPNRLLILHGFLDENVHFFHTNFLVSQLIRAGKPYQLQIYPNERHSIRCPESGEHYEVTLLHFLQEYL
Sequence of Dipeptidyl peptidase 8 (Q6V1X1 whole entry): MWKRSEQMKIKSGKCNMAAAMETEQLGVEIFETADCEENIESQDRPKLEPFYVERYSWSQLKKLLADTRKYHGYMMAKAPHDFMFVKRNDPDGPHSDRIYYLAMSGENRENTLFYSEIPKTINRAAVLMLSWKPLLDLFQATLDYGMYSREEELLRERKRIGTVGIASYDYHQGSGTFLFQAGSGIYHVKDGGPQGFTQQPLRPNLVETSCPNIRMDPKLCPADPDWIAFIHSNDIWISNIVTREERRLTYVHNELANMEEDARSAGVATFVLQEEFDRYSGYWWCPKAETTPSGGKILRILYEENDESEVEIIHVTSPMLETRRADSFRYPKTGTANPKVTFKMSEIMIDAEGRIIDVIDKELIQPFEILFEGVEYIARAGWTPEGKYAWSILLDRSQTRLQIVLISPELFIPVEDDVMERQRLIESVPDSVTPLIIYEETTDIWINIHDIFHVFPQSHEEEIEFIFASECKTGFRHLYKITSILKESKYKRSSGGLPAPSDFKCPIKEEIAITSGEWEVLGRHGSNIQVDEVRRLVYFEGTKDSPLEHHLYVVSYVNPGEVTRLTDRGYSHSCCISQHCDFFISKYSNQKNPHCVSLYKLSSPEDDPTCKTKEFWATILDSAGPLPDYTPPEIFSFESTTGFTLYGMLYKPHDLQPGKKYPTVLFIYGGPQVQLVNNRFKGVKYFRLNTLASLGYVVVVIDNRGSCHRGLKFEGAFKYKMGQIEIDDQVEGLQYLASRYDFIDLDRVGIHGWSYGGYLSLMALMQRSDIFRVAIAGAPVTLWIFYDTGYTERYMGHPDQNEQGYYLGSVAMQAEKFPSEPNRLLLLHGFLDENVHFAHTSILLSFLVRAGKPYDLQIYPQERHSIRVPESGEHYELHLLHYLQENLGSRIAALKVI

In general, IC50 refers to the concentration that inhibits the measured activity by half. A low value points to inhibition by little substance. As for `Cn1nc2c(c1C(F)(F)F)CN(C(=O)C[C@H](N)Cc1cc(F)ccc1F)CC2`, the IC50 on Dipeptidyl peptidase 9 and against Dipeptidyl peptidase 8 was more than 100 µM throughout.

Compound `Cn1nc(-c2ccc(F)cc2)c2c1CCN(C(=O)C[C@H](N)Cc1cc(F)ccc1F)C2` showed an IC50 against Dipeptidyl peptidase 9 of more than 100 µM.

In the case of `N[C@@H](CC(=O)N1CCc2nn(CC(F)(F)F)c(C(F)(F)F)c2C1)Cc1cc(F)ccc1F`, the IC50 at Dipeptidyl peptidase 9 and against Dipeptidyl peptidase 8 was more than 100 µM throughout.

As a reminder, the half-life is how long it takes for the measured level to halve. The bioavailability is the share of a dose that reaches the circulation, judged against a reference dose that is usually intravenous. Read a high bioavailability as good availability. The clearance is the rate of elimination divided by the concentration. A high value points to efficient removal. In data set [1], `N[C@@H](CC(=O)N1CCc2sc(-c3ccc(F)cc3)nc2C1)Cc1cc(F)ccc1F` showed a half-life of 3.3 h. This compound returned a bioavailability in data set [2] of 55%. Further, the clearance in data set [3] was 91 mL/min/kg.

For `Cn1nc(C(F)(F)F)c2c1CCN(C(=O)C[C@H](N)Cc1cc(F)ccc1F)C2`, the IC50 at Dipeptidyl peptidase 9 was more than 100 µM.

In turn, `N[C@@H](CC(=O)N1CCc2c(noc2C(F)(F)F)C1)Cc1cc(F)ccc1F` returned an IC50 on Dipeptidyl peptidase 2 of more than 100 µM.

In turn, `N[C@@H](CC(=O)N1CCc2c(c(C(F)(F)F)nn2CC(F)(F)F)C1)Cc1cc(F)ccc1F` displayed a half-maximal inhibitory concentration (IC50) on Dipeptidyl peptidase 9 of more than 100 µM.

In data set [1], `CS(=O)(=O)c1ccc(-c2nc3c(s2)CCN(C(=O)C[C@H](N)Cc2cc(F)ccc2F)C3)cc1` gave a half-life of 1.5 h. Moreover, the bioavailability in data set [2] turned out to be 20%. Besides, in data set [3], the clearance stood at 60 mL/min/kg.

On to `N[C@@H](CC(=O)N1CCc2oc(C3CC3)nc2C1)Cc1cc(F)ccc1F`, for which the IC50 on Dipeptidyl peptidase 2 and on Dipeptidyl peptidase 9 was more than 100 µM throughout.

`Cn1nc2c(c1-c1ccc(F)cc1)CN(C(=O)C[C@H](N)Cc1cc(F)ccc1F)CC2` came in with an IC50 at Dipeptidyl peptidase 9 of more than 100 µM.

In data set [1], `N[C@@H](CC(=O)N1CCc2sc(C(F)(F)F)nc2C1)Cc1cc(F)ccc1F` had a half-life of 2 h. Further, the bioavailability in data set [2] was determined as 16%. On Dipeptidyl peptidase 9, the IC50 is more than 100 µM. In addition, the clearance in data set [3] is 250 mL/min/kg.

Regarding `N[C@@H](CC(=O)N1CCc2noc(C(F)(F)F)c2C1)Cc1cc(F)ccc1F`, the IC50 at Dipeptidyl peptidase 9 and against Dipeptidyl peptidase 8 was more than 100 µM throughout.

Consider `N[C@@H](CC(=O)N1CCCc2n[nH]c(C(F)(F)F)c21)Cc1cc(F)ccc1F`, for which the IC50 against Dipeptidyl peptidase 9 and against Dipeptidyl peptidase 8 was more than 100 µM throughout.

Turning to `Cn1nc2c(c1C(F)(F)C(F)(F)F)CN(C(=O)C[C@H](N)Cc1cc(F)ccc1F)CC2`, the IC50 at Dipeptidyl peptidase 9 and against Dipeptidyl peptidase 8 was more than 100 µM in each case.

As for `Cn1nc(C(F)(F)C(F)(F)F)c2c1CCN(C(=O)C[C@H](N)Cc1cc(F)ccc1F)C2`, on Dipeptidyl peptidase 9, the IC50 was more than 100 µM.

In the case of `Cn1nc2c(c1C(F)(F)F)CCN(C(=O)C[C@H](N)Cc1cc(F)ccc1F)C2`, the IC50 on Dipeptidyl peptidase 9 is more than 100 µM.

For `N[C@@H](CC(=O)N1CCc2n[nH]c(C(F)(F)C(F)(F)F)c2C1)Cc1cc(F)ccc1F` (stereo in doubt; form 1), the IC50 at Dipeptidyl peptidase 9 is more than 100 µM.

`N[C@@H](CC(=O)N1CCc2n[nH]c(C(F)(F)C(F)(F)F)c2C1)Cc1cc(F)ccc1F` (stereo in doubt; form 2): the IC50 against Dipeptidyl peptidase 9 was more than 100 µM.
